{
  "source": "patent US20180214462A1",
  "about": "(priority 2015, published 2018)",
  "key": {"[1]": {"test_system": "exposed rat neocortex", "experiment": "NMDA-R antagonists during 4AP-induced recurrent seizures: BBB permeability, ECoG, vessel diameter", "format": "in vivo", "conditions": "4AP seizures, Memantine 40 mg/kg IP or D-AP5 100 μM topical; for seizure-induced permeability increase / BBB damage: pooled, p=0.02", "protocol": "(§1) Dynamic imaging of regional cerebral blood flow (rCBF) and BBB permeability measurements were performed as reported (Chassidim et al., 2014; Prager et al., 2010). The non-BBB permeable fluorescent dye, sodium fluorescein (NaFlu) was injected intravenously (1 mg/ml, 0.2 ml/injection, in 0.9% NaCl). Full-resolution (658×496 pixel) images of cortical surface vessels were obtained (5 frames/second, EMCCD camera: Andor Technology, DL-658 M-TIL, FIG. 4C) before, during and after injection of the tracer. Offline image analysis was carried out using MATLAB (MathWorks, Natick, USA) and included: sub-pixel image registration, segmentation using noise filtration, hole-filling and adaptive threshold to produce a binary image, separating blood vessels from extra-vascular regions (FIG. 4D). Signal intensity changes over time and space were then analyzed so that each pixel was represented by intensity vs. time (IT) curve (FIG. 4E). An arterial IT curve (AIF) was created by spatially averaging signal intensity through time in the primary artery. A BBB permeability index (PI) (FIG. 4E) was calculated for each extra-vascular pixel as the ratio between IT curve and AIF, from the point of the second decline phase to the end of the measurement\nECoG was recorded using a telemetric system (DSI Ltd.). Two electrodes were implanted, one attached to an intra-cranial screw adjacent to the exposed cortex, and the second placed over the exposed cortex while secured with bone wax and dental cement. In-house MATLAB scripts were used to display and record signals for post-processing. Signals were sampled at 200 Hz and filtered using a MATLAB simulated Butterworth filter, so to display only the desired frequency band (10-40 Hz). The mean power was calculated using the MATLAB “pwelch” function.\nSince prolonged and recurrent epileptic seizures may also be associated with vascular pathology and damage to the BBB through the activation of NMDA-R, the effect of NMDA-R antagonists after the induction of recurrent seizures in anesthetized rats was tested. The epileptogenic substance 4AP was applied on the surface of the brain while monitoring ECoG.\nAnimals were treated with either topical application of the specific NMDA-R blocker D-AP5 (100 μM) (prior to and during seizure induction), or systemically with the FDA approved memantine (40 mg/kg, intraperitonealy, immediately following seizure onset)."}, "[2]": {"experiment": "Preventing intracellular calcium elevation with calcium chelators in vivo", "conditions": "data not shown", "text": "The observations that direct application of NMDA similarly enhances permeability, and that permeability increase is blocked in the presence of NMDA-R blockers (FIG. 2A) indicate that the effect of glutamate is mediated by NMDA-R. Our experiments showing increased intracellular calcium in vascular endothelium in response to glutamate are consistent with previous in vitro data showing that NMDA-mediated effects are dependent on increased intracellular calcium (Krizbai et al., 1998; Sharp et al., 2003). However, we cannot rule out non-calcium dependent signaling mechanisms and the role of other components of the neurovascular unit, such as astrocytes and pericytes, which could also respond to glutamate and signal brain endothelial cells to alter permeability (Carmignoto and Gómez-Gonzalo, 2010). […] The intracellular signaling leading to enhanced permeability is also not clear. […] The latter seems unlikely with the relatively short time delay between insult (seizure/stroke) and enhanced permeability. Modulation of transcellular transport mechanisms (e.g. intercellular adhesion molecule-ICAM mediated) (Yang et al., 2005)) may also be involved."}, "[3]": {"test_system": "exposed cortex", "experiment": "Focally-induced cortical seizures (4AP or PTX): intravital fluorescence angiography of vessel diameter and BBB permeability", "format": "in vivo, rat", "conditions": "for increase in vessel diameter: seizures induced by 4AP (n=6) or PTX (n=2), pooled n=8, immediate", "protocol": "All experimental procedures in animals were approved by the Ben-Gurion University ethics committee for animal testing. Unless otherwise mentioned, all materials were purchased from Sigma-Aldrich ltd. Surgical procedures in male Spraugue-Dawley rats (200-380 g BW) were performed as previously reported (Prager et al., 2010). Rats were deeply anesthetized by intraperitoneal administration of either isoflurane or ketamine (100 mg/ml, 0.08 ml/100 gr) and xylasine (20 mg/ml, 0.06 ml/100 gr). The tail vein was catheterized, and animals were placed in a stereotactic frame (FIG. 4A) under a SteREO Lumar V12 fluorescence microscope (Zeiss, Gottingen, Germany).\n(§2) Body temperature was continuously monitored and kept stable at 37±0.5° C. using a feedback-controlled heating pad (Physitemp Ltd.). Heart rate, breath rate and oxygen saturation levels were continuously monitored using STARR (Life Sciences Ltd.). A cranial section (4 mm caudal, 2 mm frontal, 5 mm lateral to bregma) was removed over the right sensory-motor cortex. The dura and arachnoid layers were removed (FIG. 4B) and the exposed cortex was continuously perfused with ACSF (Prager et al., 2010) containing (in mM): 124 NaCl, 26 NaHCO3, 1.25 NaH2PO4, […], 2 CaCl2, 3 KCl, and 10 Glucose (pH 7.4).\n(§3) To block neuronal activity tetrodotoxin (TTX) (Narahashi et al., 1964) (10 μM), 6-Cyano-2,3-dihydroxy-7-nitro-quinoxaline (CNQX) (Yoshiyama et al., 1995) (50 μM), D-AP5 (Morris, 1989) (50 μM) and picrotoxin (PTX) (Yoon et al., 1993) (50 μM) were added to the perfusing solution (ACSF). To induce prolonged seizures (status epilepticus, SE), 4AP (Uva et al., 2013) (500 μM) or PTX (100 μM) were added to the ACSF. Electrocorticgram (ECoG) was recorded using bi-polar electrodes and a telemetric recording system (DSI Ltd.). In some cases, thrombotic stroke was induced using photothrombosis (Prado, 1987). Detection of calcium ions in the rat cortex was done with calcium chelators as previously reported (Stosiek et al., 2003). 50 μg of the fluorescent chelator OGB were dissolved in 4 μl of dimethyl sulfoxide) DMSO) containing 20% pluronic f-127. This mixture was diluted in […] of a loading solution containing (in mM): 150 NaCl, 2.5 KCl, 10 HEPES, in ddH2O (pH=7.4).\nas §1\n(§4) The PI indicates how much tracer remains in extra-vascular tissue in relation to the applied amount. PI>1 indicates tracer accumulation and defines BBB dysfunction. Fitting a PI to each extra-vascular pixel enabled spatial mapping of BBB permeability (FIG. 4F). The PI for each vascular pixel was set to 0, and therefore vessels were excluded from the map. The global permeability of a region was calculated by averaging its PI values. […]"}, "[4]": {"test_system": "cortex of rats", "format": "in vivo, rat", "conditions": "for increase in vessel permeability: cortical perfusion 1 mM, TTX, CNQX and PTX present", "protocol": "as §2, §3, §1\nas §4, with “values. Permeability measurements with this approach are possible only for regions with fully functional vasculature as the transfer of molecules between vessel and parenchyma is quantified. Increased permeability in damaged vessels is not depicted here.” for “values.”"}, "[5]": {"test_system": "vessels' wall (rat neocortex)", "experiment": "Calcium imaging (OGB, probe-based confocal laser endomicroscopy) in vessel wall after drop application of glutamate", "format": "in vivo", "protocol": "as §3\nThe exposed cortex was incubated with the final mixture for 1 hour. Probe-based confocal laser endomicroscopy (PCLE) was performed using Cellvizio dual band (Mauna Kea Technologies Ltd.) at 488 and 660 nm. […]\nIn control experiments, brains were exposed to ACSF for 60-120 min, no significant change in permeability was measured, excluding a time-dependent increase in permeability (“control”, −5.11±3.07%, n=16, P=0.7, Wilcoxon, FIG. 2A). […]"}, "[6]": {"test_system": "cultured brain endothelial cells", "conditions": "cited from earlier work"}, "[7]": {"test_system": "peri-ischemic cortex", "experiment": "Photothrombosis stroke model: BBB dysfunction in the peri-ischemic cortex", "format": "in vivo, rat", "protocol": "as §1, with “Offline image analysis was carried out using MATLAB (MathWorks, Natick, USA) and included: sub-pixel image registration, segmentation using noise filtration, hole-filling and adaptive threshold to produce a binary image, separating blood vessels from extra-vascular regions (FIG. 4D).” left out, “An arterial IT curve (AIF) was created by spatially averaging signal intensity through time in the primary artery.” left out\nThe PI indicates how much tracer remains in extra-vascular tissue in relation to the applied amount. […] The global permeability of a region was calculated by averaging its PI values. Permeability measurements with this approach are possible only for regions with fully functional vasculature as the transfer of molecules between vessel and parenchyma is quantified. […]"}, "[8]": {"conditions": "30 minutes from seizure onset, recurrent seizures, n=7"}, "[9]": {"conditions": "~10 minutes from seizure onset, 4AP or PTX pooled, n=8"}},
  "note": "Entries after “also recorded” stand apart in the source; their conditions may differ.",
  "data": [
    {"compound": "CC12CC3CC(C)(C1)CC(N)(C3)C2", "note": "[memantine]", "values": [
      {"measurement": "seizure intensity (ECoG)", "setting": "[1]", "value": "no impact"},
      {"measurement": "seizure-induced permeability increase / BBB damage", "setting": "[1]", "value": "diminished"}
    ]},
    {"compound": "CC(=O)OCOC(=O)CN(CC(=O)OCOC(C)=O)c1ccccc1OCCOc1ccccc1N(CC(=O)OCOC(C)=O)CC(=O)OCOC(C)=O", "note": "[BAPTA-AM]", "values": [
      {"measurement": "vascular side effect in vivo", "setting": "[2]", "value": "massive vasoconstriction and associated ischemia"}
    ]},
    {"compound": "picrotoxin [PTX]", "values": [
      {"measurement": "increase in vessel permeability to NaFlu", "setting": "[3]; [8]", "value": "14.17±4.65", "unit": "%"},
      {"measurement": "increase in vessel diameter", "setting": "[3]", "value": "10.05±1.01", "unit": "%"},
      {"measurement": "increase in vessel permeability to NaFlu", "setting": "[3]; [9]", "value": "20.01±7.24", "unit": "%"}
    ]},
    {"compound": "Nc1ccncc1", "note": "[4AP]", "values": [
      {"measurement": "increase in vessel permeability to NaFlu", "setting": "[3]; [8]", "value": "14.17±4.65", "unit": "%"},
      {"measurement": "increase in vessel diameter", "setting": "[3]", "value": "10.05±1.01", "unit": "%"},
      {"measurement": "increase in vessel permeability to NaFlu", "setting": "[3]; [9]", "value": "20.01±7.24", "unit": "%"}
    ]},
    {"compound": "CN[C@H](CC(=O)O)C(=O)O", "note": "[NMDA, N-methyl-d-aspartate]", "values": [
      {"measurement": "increase in vessel permeability", "setting": "[4]", "value": "18.44±7.58", "unit": "%"}
    ]},
    {"compound": "N[C@@H](CCC(=O)O)C(=O)O", "note": "[glutamate]", "values": [
      {"measurement": "calcium signal in the vessel wall", "setting": "[5]; drop application of glutamate", "value": "Rise in calcium signal"},
      {"measurement": "duration of increase in endothelial intracellular calcium", "setting": "[5]; drop application of glutamate 0.01-1 mM, n=109", "value": "12.5 ± 1.3", "unit": "s"},
      {"measurement": "permeability of cultured brain endothelial cells", "setting": "[6]", "value": "increase permeability"},
      {"measurement": "tight junction protein occludin", "setting": "[6]; glutamate 1 mM, NMDA-R mediated", "value": "reduction in the levels and cellular redistribution"},
      {"measurement": "electrical resistance", "setting": "[6]; glutamate 1 mM", "value": "lower electrical resistance"},
      {"measurement": "increase in vessel permeability", "setting": "[4]", "value": "18.15%±5.9%"},
      {"measurement": "change in vessel diameter", "setting": "[4]; glutamate application with TTX, CNQX, PTX", "value": "3.12±2.24", "unit": "%"},
      {"measurement": "shift in vascular diameter", "setting": "[4]; topical glutamate 1 mM with axonal and synaptic transmission blockers", "value": "not inducing a shift in vascular diameter"}
    ]},
    {"compound": "N[C@H](CCCP(=O)(O)O)C(=O)O", "note": "[D-AP5, R-2-amino-5-phosphonopentanoate]", "values": [
      {"measurement": "averaged percent increase in permeability in the peri-infarct cortex", "setting": "[7]; 30 and 60 min following PT, n=7, p=0.13", "value": "non-significant change"},
      {"measurement": "spatial progression of BBB dysfunction in the peri-ischemic region", "setting": "[7]; 30 and 60 minutes after clot induction, vs absence of D-AP5", "value": "significantly reduced; also recorded: significantly diminishes"},
      {"measurement": "seizure intensity (ECoG)", "setting": "[1]", "value": "no impact"},
      {"measurement": "seizure-induced permeability increase / BBB damage", "setting": "[1]", "value": "diminished"},
      {"measurement": "change in vessel permeability by glutamate in the presence of antagonist", "setting": "[4]; glutamate + D-AP5 50 μM", "value": "−3.81±4.34", "unit": "%"}
    ]}
  ]
}
